Test results published in ChEMBL document CHEMBL1201862, “PubChem BioAssay data set” (2004).
Activity calls are given as the source filed them.

Key:
[1] = target: T1, Protein phosphatase methylesterase 1 (Homo sapiens, UniProt Q9Y570); assay: Late stage results from the probe development effort to identify inhibitors of the protein methylesterase PME-1: Gel-based Activity-Based Protein Profiling (ABPP) IC50: Purified enzyme.; type: functional
[2] = target: T1, Protein phosphatase methylesterase 1; assay: endogenous PME-1 and serine hydrolase inhibition – cell lysate, mouse brain cytosol, FP-rhodamine, gel ABPP, selectivity assay for PME-1 inhibitor project, dose response, panel member PME-1 Assay Panel member description: Inhibition of endogenously expressed PME-1 (AID 2366)
Hexokinase = Hexokinase (Trypanosoma brucei, UniProt Q38C41); assay: Confirmation assay for inhibitors of Trypanosoma brucei hexokinase 1-Analogue-first series. [Related pubchem assays (depositor defined):AID1430, AID1632, AID2516, AID2560, AID2579, AID2600, AID449725, AID492951]; type: functional
Sequence of Hexokinase (Q38C41 whole entry): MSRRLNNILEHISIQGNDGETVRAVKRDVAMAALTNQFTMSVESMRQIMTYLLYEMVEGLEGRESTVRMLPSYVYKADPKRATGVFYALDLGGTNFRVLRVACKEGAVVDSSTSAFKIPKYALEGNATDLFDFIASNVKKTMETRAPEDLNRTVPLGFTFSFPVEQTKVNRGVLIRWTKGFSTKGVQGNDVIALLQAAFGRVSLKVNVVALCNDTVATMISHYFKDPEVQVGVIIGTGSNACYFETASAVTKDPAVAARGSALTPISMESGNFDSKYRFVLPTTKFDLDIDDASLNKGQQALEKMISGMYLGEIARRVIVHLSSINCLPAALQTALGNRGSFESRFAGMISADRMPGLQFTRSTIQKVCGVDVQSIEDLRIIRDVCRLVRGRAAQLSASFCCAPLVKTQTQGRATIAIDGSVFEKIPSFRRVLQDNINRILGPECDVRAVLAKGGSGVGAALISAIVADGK

[3] = target: T2, Short transient receptor potential channel 4 (Mus musculus, UniProt Q9QUQ5); assay: potentiation of DAMGO-evoked TRPC4 calcium signal – cell-based, HEK293 TRPC4/mu-opioid, Fluo-4 calcium, EC20 DAMGO, dose response (AID 434941); type: functional
T2 sequence (Q9QUQ5 whole entry): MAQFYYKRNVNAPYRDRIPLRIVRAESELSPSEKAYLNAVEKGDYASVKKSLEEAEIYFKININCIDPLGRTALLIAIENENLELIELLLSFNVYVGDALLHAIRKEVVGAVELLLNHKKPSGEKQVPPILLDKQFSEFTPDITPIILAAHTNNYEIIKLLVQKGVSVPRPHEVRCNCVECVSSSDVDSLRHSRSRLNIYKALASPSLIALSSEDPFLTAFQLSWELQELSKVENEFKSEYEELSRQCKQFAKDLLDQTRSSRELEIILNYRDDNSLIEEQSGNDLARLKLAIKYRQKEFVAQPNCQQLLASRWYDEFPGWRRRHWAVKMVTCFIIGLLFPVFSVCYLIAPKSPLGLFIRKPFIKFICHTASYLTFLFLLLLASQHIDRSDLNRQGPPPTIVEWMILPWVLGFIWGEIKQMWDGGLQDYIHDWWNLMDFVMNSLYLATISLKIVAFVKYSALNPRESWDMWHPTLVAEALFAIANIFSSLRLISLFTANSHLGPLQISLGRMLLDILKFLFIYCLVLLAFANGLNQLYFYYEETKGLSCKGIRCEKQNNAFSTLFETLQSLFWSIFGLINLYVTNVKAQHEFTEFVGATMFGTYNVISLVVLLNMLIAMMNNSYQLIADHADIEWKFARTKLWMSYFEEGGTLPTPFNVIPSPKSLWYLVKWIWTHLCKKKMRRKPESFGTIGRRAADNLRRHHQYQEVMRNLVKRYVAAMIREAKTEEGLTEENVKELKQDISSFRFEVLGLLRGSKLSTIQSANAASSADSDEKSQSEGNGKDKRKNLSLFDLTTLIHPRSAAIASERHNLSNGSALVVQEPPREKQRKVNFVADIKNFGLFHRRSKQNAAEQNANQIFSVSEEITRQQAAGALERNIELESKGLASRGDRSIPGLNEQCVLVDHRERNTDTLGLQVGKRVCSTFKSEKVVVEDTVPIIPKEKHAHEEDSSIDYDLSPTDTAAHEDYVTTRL

[4] = target: G-protein coupled receptor 55 (Homo sapiens, UniProt Q9Y2T6); assay: inhibition of LPI-stimulated GPR55 beta-arrestin translocation – imaging, U2OS, beta-arrestin-GFP, LPI agonist, primary screen (AID 2013); type: functional;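 further: antagonist potency measured as reduced agonist-driven arrestin aggregation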
Sequence of G-protein coupled receptor 55 (Q9Y2T6 whole entry): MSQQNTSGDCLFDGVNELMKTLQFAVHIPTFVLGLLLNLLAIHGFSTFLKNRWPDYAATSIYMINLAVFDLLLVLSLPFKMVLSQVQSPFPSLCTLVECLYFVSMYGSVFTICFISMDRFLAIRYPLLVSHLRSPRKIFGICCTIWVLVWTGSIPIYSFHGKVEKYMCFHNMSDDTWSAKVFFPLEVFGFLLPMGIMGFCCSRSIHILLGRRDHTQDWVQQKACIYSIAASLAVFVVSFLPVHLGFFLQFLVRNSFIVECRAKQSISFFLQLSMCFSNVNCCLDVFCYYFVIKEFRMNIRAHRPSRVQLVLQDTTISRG

[5] = target: Voltage-dependent T-type calcium channel subunit alpha-1H (Homo sapiens, UniProt O95180); type: functional;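 further: channel activity triggered by adding a high calcium stimulation buffer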
[6] = target: Eukaryotic translation initiation factor 4H (Homo sapiens, UniProt Q15056); assay: inhibitors of translation initiation factor eIF4H – SAR follow-up (AID 435011); type: functional
[7] = target: Polyadenylate-binding protein 1 (Homo sapiens, UniProt P11940); assay: PABP inhibition in translation initiation, SAR follow-up (AID 435018); type: functional
Sequence of Polyadenylate-binding protein 1 (P11940 whole entry): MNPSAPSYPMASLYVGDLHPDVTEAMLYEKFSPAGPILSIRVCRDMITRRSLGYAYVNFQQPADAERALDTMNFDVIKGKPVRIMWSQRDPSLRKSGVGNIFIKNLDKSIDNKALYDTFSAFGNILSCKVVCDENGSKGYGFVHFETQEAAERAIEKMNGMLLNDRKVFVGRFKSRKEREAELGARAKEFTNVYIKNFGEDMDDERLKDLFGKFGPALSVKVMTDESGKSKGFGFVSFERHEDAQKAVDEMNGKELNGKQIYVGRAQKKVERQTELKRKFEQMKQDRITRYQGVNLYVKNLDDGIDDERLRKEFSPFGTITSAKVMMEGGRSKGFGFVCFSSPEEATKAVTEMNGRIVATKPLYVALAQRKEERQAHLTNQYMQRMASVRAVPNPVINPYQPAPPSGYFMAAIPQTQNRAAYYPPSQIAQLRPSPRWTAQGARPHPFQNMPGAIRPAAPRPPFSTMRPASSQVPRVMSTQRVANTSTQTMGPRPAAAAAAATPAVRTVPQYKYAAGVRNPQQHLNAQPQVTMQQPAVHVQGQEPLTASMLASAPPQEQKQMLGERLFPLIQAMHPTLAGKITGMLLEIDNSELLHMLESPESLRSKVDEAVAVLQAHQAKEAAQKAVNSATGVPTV

Saccharomyces cerevisiae = assay: S. cerevisiae Caspase-1/ASC signal blockers IC50, NALP1 inhibitor project selectivity test (AID 488863); type: functional, organism-based
[8] = target: NACHT, LRR and PYD domains-containing protein 1 (Homo sapiens, UniProt Q9C000); assay: NALP1 inhibitors in yeast, dose response, luminescent (AID 488860); type: functional
Sequence of NACHT, LRR and PYD domains-containing protein 1 (Q9C000 1-1212 limits assumed): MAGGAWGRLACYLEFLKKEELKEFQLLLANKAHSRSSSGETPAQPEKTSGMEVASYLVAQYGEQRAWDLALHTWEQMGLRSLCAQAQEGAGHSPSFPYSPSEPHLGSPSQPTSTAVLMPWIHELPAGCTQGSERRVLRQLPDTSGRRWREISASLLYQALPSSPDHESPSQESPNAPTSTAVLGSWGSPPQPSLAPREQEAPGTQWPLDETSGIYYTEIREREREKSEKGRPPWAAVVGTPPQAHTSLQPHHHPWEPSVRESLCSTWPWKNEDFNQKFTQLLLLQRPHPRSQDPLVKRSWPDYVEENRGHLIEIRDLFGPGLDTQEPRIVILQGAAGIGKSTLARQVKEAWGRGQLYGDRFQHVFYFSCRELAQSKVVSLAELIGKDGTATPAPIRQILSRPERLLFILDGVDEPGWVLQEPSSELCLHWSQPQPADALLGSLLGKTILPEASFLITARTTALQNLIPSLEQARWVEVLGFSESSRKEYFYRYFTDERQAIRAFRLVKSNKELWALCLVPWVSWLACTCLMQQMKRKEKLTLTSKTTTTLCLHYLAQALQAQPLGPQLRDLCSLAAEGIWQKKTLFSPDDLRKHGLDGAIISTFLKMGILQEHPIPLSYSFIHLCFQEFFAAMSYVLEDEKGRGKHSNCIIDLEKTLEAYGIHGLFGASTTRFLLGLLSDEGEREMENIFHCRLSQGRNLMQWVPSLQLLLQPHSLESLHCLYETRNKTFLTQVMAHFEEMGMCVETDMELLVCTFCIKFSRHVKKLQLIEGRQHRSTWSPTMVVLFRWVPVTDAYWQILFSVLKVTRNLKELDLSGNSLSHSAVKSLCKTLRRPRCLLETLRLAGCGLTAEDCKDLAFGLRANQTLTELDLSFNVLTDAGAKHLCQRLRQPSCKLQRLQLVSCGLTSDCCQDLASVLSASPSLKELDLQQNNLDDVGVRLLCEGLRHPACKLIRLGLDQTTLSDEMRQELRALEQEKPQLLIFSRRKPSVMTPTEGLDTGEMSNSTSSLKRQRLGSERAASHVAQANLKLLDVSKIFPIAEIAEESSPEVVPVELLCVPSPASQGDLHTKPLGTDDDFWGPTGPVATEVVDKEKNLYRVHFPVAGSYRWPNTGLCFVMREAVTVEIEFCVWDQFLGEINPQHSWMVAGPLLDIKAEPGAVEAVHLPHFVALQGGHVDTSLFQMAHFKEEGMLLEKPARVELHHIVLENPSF
Sequence of NACHT, LRR and PYD domains-containing protein 1 (Q9C000 1213-1473 limits assumed): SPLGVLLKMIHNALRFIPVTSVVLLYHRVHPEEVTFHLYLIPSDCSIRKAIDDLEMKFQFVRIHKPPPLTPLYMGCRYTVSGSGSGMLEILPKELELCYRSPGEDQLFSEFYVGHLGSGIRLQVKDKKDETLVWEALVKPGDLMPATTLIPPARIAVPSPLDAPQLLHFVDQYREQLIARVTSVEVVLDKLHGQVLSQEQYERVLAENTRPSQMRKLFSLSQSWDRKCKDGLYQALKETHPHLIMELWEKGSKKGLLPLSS

[9] = test system: Streptococcus sp. 'group A'; assay: Streptococcus pyogenes SK(-)GAS viability under kanamycin – luminescence, BacTiterGlo, confirmation, counter-screen for streptokinase expression inhibitor project, dose response (AID 1900); type: functional, organism-based
Streptokinase A = target: T3, Streptokinase A (Streptococcus pyogenes serotype M1, UniProt P10520); assay: viability-normalized secreted streptokinase activity reduction – plasminogen activation absorbance, OD405, dose response (AID 1914); type: functional, Streptococcus pyogenes M1 GAS;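 further: secreted streptokinase activity via plasminogen activation per viability signal from cell pellet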
T3 sequence (P10520 whole entry): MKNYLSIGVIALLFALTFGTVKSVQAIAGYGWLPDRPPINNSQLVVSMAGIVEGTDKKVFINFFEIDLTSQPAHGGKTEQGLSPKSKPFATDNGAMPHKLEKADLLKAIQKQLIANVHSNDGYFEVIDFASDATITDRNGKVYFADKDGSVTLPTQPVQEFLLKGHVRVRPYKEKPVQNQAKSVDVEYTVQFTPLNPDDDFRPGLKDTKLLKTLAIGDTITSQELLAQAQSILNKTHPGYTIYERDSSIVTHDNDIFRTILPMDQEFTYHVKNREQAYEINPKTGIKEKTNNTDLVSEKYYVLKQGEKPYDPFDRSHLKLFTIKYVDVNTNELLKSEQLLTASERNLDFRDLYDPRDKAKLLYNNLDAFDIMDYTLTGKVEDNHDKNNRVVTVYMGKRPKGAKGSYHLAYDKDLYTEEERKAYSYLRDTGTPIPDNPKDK

Streptococcus = assay: GAS UMAA2166 growth inhibition – luminescence, BacTiterGlo, counter-screen for streptokinase expression inhibitor project, dose response (AID 1915); type: functional, organism-based;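 further: potency for reduction of bacterial viability or growth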
Trypsin = Trypsin (Sus scrofa, UniProt P00761); assay: trypsin protease activity blockade – biochemical, quenched peptide fluorescence, cherry-pick, selectivity assay for Rce1 protease inhibitor project, dose response (AID 488789)
Sequence of Trypsin (P00761 whole entry): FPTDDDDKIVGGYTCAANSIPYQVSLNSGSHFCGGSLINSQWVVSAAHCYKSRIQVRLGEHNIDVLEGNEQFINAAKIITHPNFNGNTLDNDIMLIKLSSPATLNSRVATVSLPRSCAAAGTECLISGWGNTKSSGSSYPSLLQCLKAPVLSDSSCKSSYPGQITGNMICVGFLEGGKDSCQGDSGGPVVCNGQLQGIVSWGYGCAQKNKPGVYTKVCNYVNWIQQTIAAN

CAAX prenyl protease 2 = target: T4, CAAX prenyl protease 2 (Saccharomyces cerevisiae S288c, UniProt Q03530); type: biochemical
T4 sequence (Q03530 whole entry): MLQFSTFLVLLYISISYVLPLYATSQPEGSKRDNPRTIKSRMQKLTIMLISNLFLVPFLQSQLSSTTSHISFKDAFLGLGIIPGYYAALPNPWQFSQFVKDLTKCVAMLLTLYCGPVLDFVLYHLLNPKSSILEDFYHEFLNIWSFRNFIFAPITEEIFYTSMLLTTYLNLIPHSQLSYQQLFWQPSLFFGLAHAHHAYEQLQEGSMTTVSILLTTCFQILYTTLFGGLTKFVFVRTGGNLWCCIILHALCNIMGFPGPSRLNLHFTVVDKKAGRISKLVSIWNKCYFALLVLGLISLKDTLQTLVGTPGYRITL

[10] = A549 cell cytotoxicity, dose response, cytotoxicity control, plate reader, cherry-pick, antagonist series (AID 743412); type: functional, cell-based
[11] = toxicity toward HepG2 liver cells – cell-based, plate reader, cherry-pick, antagonist series, cytotoxicity control, dose response (AID 743416); type: functional
[12] = blockers of bursicon-stimulated LGR2 cAMP reporter – cell-based, HEK293, CRE-luciferase reporter, cherry pick, set 2, dose response (AID 743343); type: functional;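 further: transfected cells were stimulated with diluted bursicon conditioned medium after compound addition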
[13] = blockade of melanocortin 4 receptor signaling – cell-based, plate reader, cherry pick, counter-screen for LGR2 antagonist project, dose response (AID 743444); type: functional;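 further: transfected HEK 293 cells stimulated with alpha-MSH peptide; potency of inhibitors of the alpha-MSH evoked signal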
[14] = viability loss in HEK293 cells – cell-based, plate reader, cherry-picked samples, cytotoxicity control, dose response (AID 743446); type: functional

T1 sequence (Q9Y570 whole entry): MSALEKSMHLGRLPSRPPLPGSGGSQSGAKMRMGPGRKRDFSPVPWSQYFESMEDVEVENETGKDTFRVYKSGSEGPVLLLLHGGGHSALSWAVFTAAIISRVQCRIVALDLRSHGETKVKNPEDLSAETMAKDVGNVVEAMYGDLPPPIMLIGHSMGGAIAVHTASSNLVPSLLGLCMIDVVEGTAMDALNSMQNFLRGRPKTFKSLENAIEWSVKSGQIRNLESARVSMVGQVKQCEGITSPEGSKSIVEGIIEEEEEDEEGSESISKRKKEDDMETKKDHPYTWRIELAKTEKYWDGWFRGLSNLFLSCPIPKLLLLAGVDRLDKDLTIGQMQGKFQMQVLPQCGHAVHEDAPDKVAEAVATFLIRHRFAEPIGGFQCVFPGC

CS(=O)(=O)/C(=C/c1cccn1S(=O)(=O)c1ccccc1)CN
IC50 [1]: > 20 µM (not active)
IC50 [2]: > 20 µM (inactive)

O=C(Cn1sc2cc(F)ccc2c1=O)Nc1ccccc1
IC50 (Hexokinase): 4.34 µM (active)

Cc1ccc(Cn2c(=N)c(C(=O)NC3CCCC3)cc3c(=O)n4ccccc4nc32)cc1
EC50 [3]: 2.11 µM (active)

O=C(CSc1nc2ccccc2o1)Nc1ccccc1N1CCCCCC1
IC50 [4]: 2.06 µM (active)
EC50 [5]: 8.41 µM (active)

COc1cccc(N=C2SC(C(=O)Nc3ccc(F)cc3)CC(=O)N2C)c1 (stereo not given)
IC50 [6]: > 100 µM (inactive)
IC50 [7]: > 100 µM (inactive)

CCCOc1ccccc1NC(=O)/C=C/C(N)=O
IC50 (Saccharomyces cerevisiae): 5.33 µM (active)
IC50 [8]: 8.5 µM (active)

CCC(C)Sc1cc(-c2nc3ccccn3c2NC2CCCCC2)ccc1OC (stereo not given)
EC50 [9]: 2.28 µM (active)
EC50 (Streptokinase A): 15 µM (active)
EC50 (Streptococcus): 7.68 µM (active)
AC50 (Trypsin): 2.69 µM (active)
AC50 (CAAX prenyl protease 2): 7.58 µM (active)
AC50 [10]: 15.7 µM (active)
AC50 [11]: 18.2 µM (active)
AC50 [12]: 2.82 µM (active)
AC50 [13]: 3.11 µM (active)
AC50 [14]: 21.1 µM (active)
